Activity calls are given as the source filed them. The calls are words filed in the database; no cut-off is given here.
Tests used:
HT-22 [1] = experiment: Anti-apoptotic activity in glutamate-induced mouse HT-22 cells assessed as increase in BCL-2 expression at 10 to 20 uM incubated for 12 hrs by Western blot analysis; format: functional, cell-based; conditions: dose 10-20 µM
HT-22 [2] = experiment: Induction of apoptosis in glutamate-induced mouse HT-22 cells assessed as late apoptotic cells at 10 uM incubated for 12 hrs by Annexin V/PI staining based flow cytometry analysis (reference value: 2.55 %); format: functional
Cortical neurone [3] = experiment: Neuroprotective activity against OGD/R induced C57BL/6J mouse Primary cortical neuron assessed as decrease in C-caspase3 expression at 10 to 20 uM incubated for 12 hrs by immunofluorescence analysis; format: functional, cell-based; conditions: dose 10-20 µM
HT-22 [4] = experiment: Induction of apoptosis in glutamate-induced mouse HT-22 cells assessed as reduction in C-caspase 3 activation at 10 to 20 uM incubated for 12 hrs by immunofluorescence analysis; format: functional, cell-based; conditions: dose 10-20 µM
HT-22 [5] = experiment: Neuroprotective activity against glutamate-induced cytotoxicity in mouse HT-22 cells at 10 to 20 uM assessed as increase in cell viability measured after 14 hrs by CCK8 assay; format: functional, cell-based; conditions: dose 10-20 µM
[6] = target: T1, Receptor-type tyrosine-protein phosphatase O (Homo sapiens, UniProt Q16827); experiment: Inhibition of PTPRO (unknown origin)
T1 sequence (Q16827 whole entry): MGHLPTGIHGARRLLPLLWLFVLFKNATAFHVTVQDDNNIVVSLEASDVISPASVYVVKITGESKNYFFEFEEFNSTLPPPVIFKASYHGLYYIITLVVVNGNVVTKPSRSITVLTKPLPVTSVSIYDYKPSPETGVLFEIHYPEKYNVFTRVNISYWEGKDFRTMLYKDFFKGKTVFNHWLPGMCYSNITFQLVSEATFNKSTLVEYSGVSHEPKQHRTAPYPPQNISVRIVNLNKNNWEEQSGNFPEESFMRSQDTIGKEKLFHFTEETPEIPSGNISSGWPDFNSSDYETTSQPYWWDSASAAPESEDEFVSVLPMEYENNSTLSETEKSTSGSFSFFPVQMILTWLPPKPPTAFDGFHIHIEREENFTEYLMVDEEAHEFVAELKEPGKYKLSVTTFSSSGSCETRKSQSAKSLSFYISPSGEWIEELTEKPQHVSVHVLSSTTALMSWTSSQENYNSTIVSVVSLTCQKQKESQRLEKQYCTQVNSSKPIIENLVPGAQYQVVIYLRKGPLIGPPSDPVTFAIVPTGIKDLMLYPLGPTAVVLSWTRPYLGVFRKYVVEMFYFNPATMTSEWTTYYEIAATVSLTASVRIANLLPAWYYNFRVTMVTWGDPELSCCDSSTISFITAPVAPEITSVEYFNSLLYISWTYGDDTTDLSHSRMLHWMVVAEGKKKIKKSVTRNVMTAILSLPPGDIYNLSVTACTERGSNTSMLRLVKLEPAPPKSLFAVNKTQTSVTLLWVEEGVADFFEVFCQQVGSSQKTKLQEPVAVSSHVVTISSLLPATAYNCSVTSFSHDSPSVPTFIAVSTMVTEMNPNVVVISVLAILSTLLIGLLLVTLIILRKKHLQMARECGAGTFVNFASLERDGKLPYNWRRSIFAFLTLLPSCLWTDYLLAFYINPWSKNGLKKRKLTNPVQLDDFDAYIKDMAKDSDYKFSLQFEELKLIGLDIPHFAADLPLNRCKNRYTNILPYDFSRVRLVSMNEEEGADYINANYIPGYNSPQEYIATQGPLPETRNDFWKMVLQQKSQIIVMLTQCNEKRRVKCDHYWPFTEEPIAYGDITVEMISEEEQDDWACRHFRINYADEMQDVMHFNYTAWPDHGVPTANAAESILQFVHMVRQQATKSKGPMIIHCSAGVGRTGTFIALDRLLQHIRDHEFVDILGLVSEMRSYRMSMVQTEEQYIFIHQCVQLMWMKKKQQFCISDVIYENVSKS

HT-22 [7] = experiment: […] glutamate-induced ROS accumulation in mouse HT-22 cells assessed as reduction in fluorescent intensity at 10 to 20 uM incubated for 14 hrs by DCFH-DA staining based inverted fluorescence microscopic analysis; format: functional, cell-based; conditions: dose 10-20 µM
HT-22 [8] = experiment: Induction of apoptosis in glutamate-induced mouse HT-22 cells assessed as early apoptotic cells at 20 uM incubated for 12 hrs by Annexin V/PI staining based flow cytometry analysis (reference value: 1.23 %); format: functional
HT-22 [9] = experiment: Induction of apoptosis in glutamate-induced mouse HT-22 cells assessed as viable cells at 10 uM incubated for 12 hrs by Annexin V/PI staining based flow cytometry analysis (reference value: 92.6%); format: functional; conditions: read-out: Activity
HT-22 [10] = experiment: Induction of apoptosis in glutamate-induced mouse HT-22 cells assessed as late apoptotic cells at 20 uM incubated for 12 hrs by Annexin V/PI staining based flow cytometry analysis (reference value: 2.55 %); format: functional
Cortical neurone [11] = experiment: Neuroprotective activity against OGD/R induced C57BL/6J mouse Primary cortical neuron assessed as decrease in BAX expression at 10 to 20 uM incubated for 12 hrs by immunofluorescence analysis; format: functional, cell-based; conditions: dose 10-20 µM
HT-22 [12] = experiment: Induction of apoptosis in glutamate-induced mouse HT-22 cells assessed as necrotic cells at 10 uM incubated for 12 hrs by Annexin V/PI staining based flow cytometry analysis (reference value: 3.63 %); format: functional
PC-12 = experiment: Cytotoxicity against PC-12 cells at 40 uM incubated for 48 hrs by CCK-8 assay; format: toxicity, cell-based; conditions: rat, pc-12, 48 h
HT-22 [13] = experiment: Neuroprotective activity against glutamate-induced cytotoxicity in mouse HT-22 cells at 10 to 20 uM assessed as cell death measured after 14 hrs by CCK8 assay; format: functional, cell-based; conditions: dose 10-20 µM
HT-22 [14] = experiment: Induction of apoptosis in glutamate-induced mouse HT-22 cells assessed as viable cells at 20 uM incubated for 12 hrs by Annexin V/PI staining based flow cytometry analysis (reference value: 92.6%); format: functional; conditions: read-out: Activity
[15] = target: T2, Tyrosine-protein phosphatase non-receptor type 22 (Homo sapiens, UniProt Q9Y2R2); experiment: Inhibition of LYP (unknown origin)
T2 sequence (Q9Y2R2 whole entry): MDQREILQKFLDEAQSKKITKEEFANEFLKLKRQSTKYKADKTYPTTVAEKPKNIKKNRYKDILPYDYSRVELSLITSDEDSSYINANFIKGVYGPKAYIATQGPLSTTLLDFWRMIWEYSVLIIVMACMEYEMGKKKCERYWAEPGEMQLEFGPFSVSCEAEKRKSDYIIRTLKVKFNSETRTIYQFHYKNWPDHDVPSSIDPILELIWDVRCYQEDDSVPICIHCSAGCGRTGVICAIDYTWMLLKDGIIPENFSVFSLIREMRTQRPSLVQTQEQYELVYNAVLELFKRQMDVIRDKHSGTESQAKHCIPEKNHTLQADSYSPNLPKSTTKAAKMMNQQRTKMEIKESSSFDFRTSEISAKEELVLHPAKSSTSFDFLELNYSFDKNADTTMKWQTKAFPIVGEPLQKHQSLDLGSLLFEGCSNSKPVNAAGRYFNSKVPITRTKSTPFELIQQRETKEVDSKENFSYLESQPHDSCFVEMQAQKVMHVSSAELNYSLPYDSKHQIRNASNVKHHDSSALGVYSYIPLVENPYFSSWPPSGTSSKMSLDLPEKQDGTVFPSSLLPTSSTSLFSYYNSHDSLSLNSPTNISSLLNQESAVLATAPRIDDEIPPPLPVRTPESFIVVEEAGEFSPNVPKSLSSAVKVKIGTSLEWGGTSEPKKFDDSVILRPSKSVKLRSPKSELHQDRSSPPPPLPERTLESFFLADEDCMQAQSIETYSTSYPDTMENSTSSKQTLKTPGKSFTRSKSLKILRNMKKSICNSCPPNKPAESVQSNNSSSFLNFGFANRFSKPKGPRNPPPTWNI

HT-22 [16] = experiment: Anti-apoptotic activity in glutamate-induced mouse HT-22 cells assessed as decrease in BAX expression at 10 to 20 uM incubated for 12 hrs by Western blot analysis; format: functional, cell-based; conditions: dose 10-20 µM
[17] = target: T3, Tyrosine-protein phosphatase non-receptor type 1 (Homo sapiens, UniProt P18031); experiment: Inhibition of PTP1B (unknown origin)
T3 sequence (P18031 whole entry): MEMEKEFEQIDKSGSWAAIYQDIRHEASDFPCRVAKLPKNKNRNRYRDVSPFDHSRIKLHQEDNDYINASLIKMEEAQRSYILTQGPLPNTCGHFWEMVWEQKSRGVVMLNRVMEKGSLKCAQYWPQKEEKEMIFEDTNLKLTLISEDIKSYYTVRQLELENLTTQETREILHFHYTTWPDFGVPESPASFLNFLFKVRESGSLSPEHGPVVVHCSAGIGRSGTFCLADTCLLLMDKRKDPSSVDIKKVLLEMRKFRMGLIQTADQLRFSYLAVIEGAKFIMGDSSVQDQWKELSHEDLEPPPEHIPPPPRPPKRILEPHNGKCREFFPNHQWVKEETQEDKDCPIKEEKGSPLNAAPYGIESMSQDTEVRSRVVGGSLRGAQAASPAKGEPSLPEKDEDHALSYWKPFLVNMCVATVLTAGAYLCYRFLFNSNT

HT-22 [18] = experiment: Anti-apoptotic activity in glutamate-induced mouse HT-22 cells assessed as decrease in BAX expression at 10 to 20 uM incubated for 12 hrs by immunofluorescence analysis; format: functional, cell-based; conditions: dose 10-20 µM
Cortical neurone [19] = experiment: Neuroprotective activity against OGD/R induced C57BL/6J mouse Primary cortical neuron assessed as increase in BCL-2 expression at 10 to 20 uM incubated for 12 hrs by immunofluorescence analysis; format: functional, cell-based; conditions: dose 10-20 µM
HT-22 [20] = experiment: Cytotoxicity against mouse HT-22 cells assessed as effect on cell viability at 40 uM incubated for 48 hrs by CCK-8 assay; format: toxicity, cell-based; conditions: ht-22, 48 h
HT-22 [21] = experiment: Induction of apoptosis in glutamate-induced mouse HT-22 cells assessed as early apoptotic cells at 10 uM incubated for 12 hrs by Annexin V/PI staining based flow cytometry analysis (reference value: 1.23 %); format: functional
HT-22 [22] = experiment: Effect on STEP expression in mouse HT-22 cells by Western blot analysis; format: functional, cell-based
HT-22 [23] = experiment: Induction of apoptosis in glutamate-induced mouse HT-22 cells assessed as reduction in C-caspase 3 activation at 10 to 20 uM incubated for 12 hrs by Western blot analysis; format: functional, cell-based; conditions: dose 10-20 µM
Cortical neurone [24] = experiment: Neuroprotective activity against OGD/R induced C57BL/6J mouse Primary cortical neuron assessed as alleviation in neuronal apoptosis at 10 to 20 uM incubated for 12 hrs by immunofluorescence analysis; format: functional, cell-based; conditions: dose 10-20 µM
HT-22 [25] = experiment: Induction of apoptosis in glutamate-induced mouse HT-22 cells assessed as necrotic cells at 20 uM incubated for 12 hrs by Annexin V/PI staining based flow cytometry analysis (reference value: 3.63 %); format: functional
[26] = target: T4, Tyrosine-protein phosphatase non-receptor type 2 (Homo sapiens, UniProt P17706); experiment: Inhibition of TCPTP (unknown origin)
T4 sequence (P17706 whole entry): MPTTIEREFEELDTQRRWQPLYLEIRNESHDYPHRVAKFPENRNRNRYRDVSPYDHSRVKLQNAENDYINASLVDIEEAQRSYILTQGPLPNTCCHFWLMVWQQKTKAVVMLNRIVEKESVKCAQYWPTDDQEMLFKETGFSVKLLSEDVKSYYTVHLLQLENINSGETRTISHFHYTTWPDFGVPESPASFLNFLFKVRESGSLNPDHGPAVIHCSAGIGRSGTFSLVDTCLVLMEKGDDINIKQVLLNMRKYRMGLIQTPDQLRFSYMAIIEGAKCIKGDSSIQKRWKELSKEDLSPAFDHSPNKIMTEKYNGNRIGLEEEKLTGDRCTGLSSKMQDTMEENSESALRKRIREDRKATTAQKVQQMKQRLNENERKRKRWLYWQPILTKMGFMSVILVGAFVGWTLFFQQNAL

Cortical neurone [27] = experiment: Neuroprotective activity against OGD/R induced C57BL/6J mouse Primary cortical neuron assessed as alleviation in neuronal apoptosis at 10 to 20 uM incubated for 12 hrs by TUNEL staining based analysis; format: functional, cell-based; conditions: dose 10-20 µM
HT-22 [28] = experiment: Anti-apoptotic activity in glutamate-induced mouse HT-22 cells assessed as increase in BCL-2 expression at 10 to 20 uM incubated for 12 hrs by immunofluorescence analysis; format: functional, cell-based; conditions: dose 10-20 µM

O=C(O)c1ccc(-c2ccc(/C=C3\C(=O)c4cccc([N+](=O)[O-])c4C3=O)o2)c(Cl)c1
Activity (HT-22 [1]): Active | Activity (HT-22 [2]): 4.02% | Activity (Cortical neurone [3]): Active | Activity (HT-22 [4]): Active | Activity (HT-22 [5]): Active | IC50 [6]: 14.3 µM | Activity (HT-22 [7]): Active | Activity (HT-22 [8]): 2.02% | viability at 10 µM (HT-22 [9]): 91.9% | Activity (HT-22 [10]): 3.57% | Activity (Cortical neurone [11]): Active | Activity (HT-22 [12]): 0.92% | Activity (PC-12): Non-toxic | Activity (HT-22 [13]): Active | viability at 20 µM (HT-22 [14]): 93.2% | IC50 [15]: 11.2 µM | Activity (HT-22 [16]): Active | IC50 [17]: 9.01 µM | Activity (HT-22 [18]): Active | Activity (Cortical neurone [19]): Active | Activity (HT-22 [20]): Non-toxic | Activity (HT-22 [21]): 3.15% | Activity (HT-22 [22]): Active | Activity (HT-22 [23]): Active | Activity (Cortical neurone [24]): Active | Activity (HT-22 [25]): 1.26% | IC50 [26]: 44 µM | Activity (Cortical neurone [27]): Active | Activity (HT-22 [28]): Active

Source: ChEMBL document CHEMBL6078701, “Design and synthesis of novel benzoic acid derivatives as striatal-enriched protein tyrosine phosphatase (STEP) inhibitors with neuroprotective properties” (Eur J Med Chem, 2025)
